Strand notation (5' to 3'): a small letter for the sugar, then the base; units joined by * are phosphorothioate-linked, units joined directly phosphodiester-linked; [ ] holds rarer units or linkages, { } end groups; capitals alone tell only the bases. e = 2'-O-(2-methoxyethyl) (MOE); [5mC] = 5-methylcytosine; d = 2'-deoxy (DNA)
How the values were obtained:
PCSK9 mRNA = assay type: cell-based, human; details: Hep3B cells, 100 nM, relative to untreated control cells; for % Inhib (PCSK9 mRNA): 0 = no reduction observed
Protocol: When cells reached appropriate confluency, they were treated with oligonucleotide using LIPOFECTIN® as described. […] Cells were treated and data were obtained in duplicate or triplicate. […] Cells were harvested 16-24 hours after oligonucleotide treatment.
Short antisense compounds targeted to a PCSK9 nucleic acid were tested for their effects on PCSK9 mRNA in vitro. The Isis No, gapmer motif and SEQ ID NO of each short antisense compound are shown again in Table 75. Cultured Hep3B cells were treated with 100 nM of short antisense compound. 5-10-5 MOE gapmers targeted to a PCSK9 nucleic acid were used as positive controls. After the treatment period, RNA was isolated from the cells and PCSK9 mRNA levels were measured by quantitative real-time PCR, as described herein. PCSK9 mRNA levels were adjusted according to total RNA content as measured by RIBOGREEN®. Results are presented in Table 75 as percent inhibition of PCSK9 (% Inhib), relative to untreated control cells.

[1] = Triglyceride, cholesterol and glucose levels, pre-bleed and post-bleed (Example 4, Table 34); assay type: in vivo, mouse
Protocol: Eight-week old male C57/BL6 mice (Jackson Laboratory, Bar Harbor, Me.) were administered a single dose of GCGR oligonucleotide by intraperitoneal injection at a concentration of […]. Each dose group consisted of four animals. Shown in Table 31 are the sequences, motifs and conjugates of the GCGR antisense compounds used in this study. Bolded residues indicate 2′-O-methoxyethyl (2′-MOE) moieties. All compounds comprise phosphorothioate internucleoside linkages throughout and each cytosine is replaced with 5-methylcytosine. ISIS 386626, ISIS 386627 and ISIS 386628 further comprise a C16 conjugate group attached to the 2′-O position of the sugar via a diamide linkage (2′-OCH2C(═O)N(H)(CH2)4N(H)C(═O)—(CH2)15CH3). GCGR antisense compounds target published GCGR sequences, including Genbank® Accession No. BC031885.1 (SEQ ID NO: 7).
Mice were sacrificed 48 hours following injection to determine serum transaminase levels (Table 32); liver, white adipose tissue (WAT), spleen and kidney weight (Table 33); cholesterol, triglyceride and glucose levels (Table 34); GCGR mRNA levels (Tables 35-41); and full-length and total oligonucleotide concentration in liver and kidney (Table 42). Endpoints were assessed using methods described herein and well known to those of ordinary skill in the art. Data is included from a pre-treatment bleed (Pre-Bleed) and post-treatment bleed (Post-Bleed).

Substance | % Inhib (PCSK9 mRNA) (PCSK9 mRNA) [%] | further results
400363 (antisense e[5mC]*e[5mC]*dG*dG*d[5mC]*dA*dG*d[5mC]*dA*dG*dA*dT*eG*eG) [compound 400363] | 8 | –
400305 (antisense eG*e[5mC]*d[5mC]*dT*dG*dT*d[5mC]*dT*dG*dT*dG*dG*eA*eA) [compound 400305] | 38 | % Inhibition Range (PCSK9 mRNA) (PCSK9 mRNA): 30-40%
400371 (antisense eA*eG*dT*dT*dA*d[5mC]*dA*dA*dA*dA*dG*d[5mC]*eA*eA) [compound 400371] | 0 | –
400362 (antisense e[5mC]*eG*dG*d[5mC]*dA*dG*d[5mC]*dA*dG*dA*dT*dG*eG*e[5mC]) [compound 400362] | 16 | % Inhibition Range (PCSK9 mRNA) (PCSK9 mRNA): 10-20%
400349 (antisense e[5mC]*eT*dG*dG*dA*dG*d[5mC]*dA*dG*d[5mC]*dT*d[5mC]*eA*eG) [compound 400349] | 13 | % Inhibition Range (PCSK9 mRNA) (PCSK9 mRNA): 10-20%
400297 (antisense eA*eT*dG*dG*dG*dG*d[5mC]*dA*dA*d[5mC]*dT*dT*e[5mC]*eA) [compound 400297] | 0 | –
400340 (e[5mC]*eT*dG*dG*dT*d[5mC]*d[5mC]*dT*d[5mC]*dA*dG*dG*eG*eA; antisense) [compound 400340] | 0 | –
400300 (antisense eG*eG*dG*dA*dT*dG*d[5mC]*dT*d[5mC]*dT*dG*dG*eG*e[5mC]) [compound 400300] | 9 | –
400334 (e[5mC]*eT*d[5mC]*dA*dG*dG*dG*dA*dA*d[5mC]*d[5mC]*dA*eG*eG; antisense) [compound 400334] | 0 | –
400358 (antisense eA*eT*dG*dG*d[5mC]*dA*dG*d[5mC]*dA*dG*dG*dA*eA*eG) [compound 400358] | 12 | % Inhibition Range (PCSK9 mRNA) (PCSK9 mRNA): 10-20%
400355 (antisense eA*eG*dA*d[5mC]*dA*d[5mC]*d[5mC]*d[5mC]*dT*d[5mC]*dA*d[5mC]*e[5mC]*e[5mC]) [compound 400355] | 0 | –
400322 (eT*eT*d[5mC]*d[5mC]*dG*dA*dA*dT*dA*dA*dA*d[5mC]*eT*e[5mC]; antisense) [compound 400322] | 0 | –
ISIS 386628: GCGR 2-10-2 MOE gapmer with C16 conjugate group at the 2′-O position via a diamide linkage (antisense TGTCTTGCTGCTTT; chemistry not fully specified) | – | post-bleed glucose levels ([1]; C57/BL6 mice, single i.p. dose, 48 hours): generally led to a decrease; post-bleed triglyceride levels ([1]; relative to the 5-10-5 MOE gapmer): greatest dose-dependent effect
400310 (eT*e[5mC]*d[5mC]*d[5mC]*dG*dG*d[5mC]*d[5mC]*dG*d[5mC]*dT*dG*eA*e[5mC]; antisense) [compound 400310] | 8 | –

Reference: patent US8188059B2, “Compounds and methods for modulating expression of GCGR” (Isis Pharmaceuticals, Inc., priority 2006, dated 2012)
